The results in this text go back to PubChem BioAssay AID2060325 (Molecular Pharmacology Branch, DTP, NCI, 2025).

The test system of this test is SK-OV-3 multi-cell spheroids, viability. Put plainly: Anticancer human tumor SK-OV-3 cell line growth inhibition [IpAb].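 On viability, T/C: viability read after seven days of drug exposure; percent of DMSO vehicle control luminescence.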 The settings on record: for viability, T/C: stronger effect = lower value. In a few lines: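 Multi-cell spheroids of 60% tumour cells, 25% HUVEC and 15% MSC in ultra-low-attachment U-bottom wells, treated with agents combined with ipatasertib or abemaciclib. Half-log ranges top out near clinical Cmax, or 10 microM when Cmax is unknown.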

The mark [1] stands for this setting: curve of first compound, second compound 0.01 µM.
[2] abbreviates: curve of first compound, second compound 0.0316 µM.
Setting [3] is: curve of first compound, second compound 0.1 µM.
The mark [4] stands for this setting: curve of first compound, second compound 0.316 µM.
Setting [5] is: curve of first compound, second compound 1 µM.
Where [6] appears, read: second compound 0.01 µM, first compound 0.00949 µM.
Where [7] appears, read: second compound 0.01 µM, first compound 0.03 µM.
Setting [8] is: second compound 0.01 µM, first compound 0.0949 µM.
Where [9] appears, read: second compound 0.01 µM, first compound 0.3 µM.
[10] abbreviates: second compound 0.0316 µM, first compound 0.00949 µM.
Setting [11] is: second compound 0.0316 µM, first compound 0.03 µM.
Where [12] appears, read: second compound 0.0316 µM, first compound 0.0949 µM.
The mark [13] stands for this setting: second compound 0.0316 µM, first compound 0.3 µM.
The mark [14] stands for this setting: second compound 0.1 µM, first compound 0.00949 µM.
Setting [15] is: second compound 0.1 µM, first compound 0.03 µM.
Setting [16] is: second compound 0.1 µM, first compound 0.0949 µM.
The mark [17] stands for this setting: second compound 0.1 µM, first compound 0.3 µM.
Where [18] appears, read: second compound 0.1 µM, first compound 0.949 µM.
The mark [19] stands for this setting: second compound 0.1 µM, first compound 3 µM.
Where [20] appears, read: second compound 0.316 µM, first compound 0.00949 µM.
Where [21] appears, read: second compound 0.316 µM, first compound 0.03 µM.
[22] abbreviates: second compound 0.316 µM, first compound 0.0949 µM.
Setting [23] is: second compound 0.316 µM, first compound 0.3 µM.
[24] abbreviates: second compound 0.316 µM, first compound 0.949 µM.
The mark [25] stands for this setting: second compound 0.316 µM, first compound 3 µM.
[26] abbreviates: second compound 1 µM, first compound 0.00949 µM.
Setting [27] is: second compound 1 µM, first compound 0.03 µM.
The mark [28] stands for this setting: second compound 1 µM, first compound 0.0949 µM.
The mark [29] stands for this setting: second compound 1 µM, first compound 0.3 µM.
[30] abbreviates: second compound 1 µM, first compound 0.949 µM.
Setting [31] is: second compound 1 µM, first compound 3 µM.

By pIC50 is commonly meant −log10 of the IC50, conventionally taken in molar units. For orientation: viability, T/C means the result in the treated group divided by that in the control group, in per cent.

pIC50: −log10 of the molar value. Values joined by “and” are separate entries in the source; they are usually repeats but may differ in a detail not shown here. Equal values may be shown once.

Consider `Cn1cnc2c(F)c(Nc3ccc(Br)cc3Cl)c(C(=O)NOCCO)cc21` + CCN1CCN(Cc2ccc(Nc3ncc(F)c(-c4cc(F)c5nc(C)n(C(C)C)c5c4)n3)nc2)CC1, for which the pIC50 runs as follows: under setting [1], 5.78; under setting [2], 5.93; under setting [3], 6.41; under setting [4], 6.78; under setting [5], greater than 8.02. For the same compound, the viability, T/C by setting is: under setting [6], 90.9%; under setting [7], 95.4%; under setting [8], 98%; under setting [9], 96%; (second compound 0.01 µM, first compound 0.949 µM) 65.5%; (second compound 0.01 µM, first compound 3 µM) 33.9%. The viability, T/C runs as follows: under setting [10], 80.6%; under setting [11], 79.5%; under setting [12], 84.1%; under setting [13], 75.1%; (second compound 0.0316 µM, first compound 0.949 µM) 55.5%; (second compound 0.0316 µM, first compound 3 µM) 27.1%. In addition, the viability, T/C by setting is: under setting [14], 59.8%; under setting [15], 59.1%; under setting [16], 66.8%; under setting [17], 51.2%; under setting [18], 38.6%; under setting [19], 28.2%. The viability, T/C under setting [20] was 61.7%; the viability, T/C under setting [21] is 63.7%; the viability, T/C under setting [22] is 49.1%; the viability, T/C under setting [23] was 47.4%; the viability, T/C under setting [24] was 38.8%; the viability, T/C under setting [25] is 28.4%. Also, the viability, T/C is, setting by setting: under setting [26], 41.8%; under setting [27], 50.6%; under setting [28], 50.8%; under setting [29], 44.6%; under setting [30], 35.9%; under setting [31], 24.2%.

For `C=CC(=O)N1CCN(c2nc(=O)n(-c3c(C)ccnc3C(C)C)c3nc(-c4c(O)cccc4F)c(F)cc23)C(C)C1` (stereo not given), the viability, T/C (compound 0.0316 µM) was 100% and 104%; the viability, T/C (compound 0.1 µM) was 107% and 105%; the viability, T/C (compound 0.316 µM) was 111% and 117%; the viability, T/C (compound 1 µM) was 115% and 130%; the viability, T/C (compound 3.16 µM) is 125% and 120%; the viability, T/C (compound 10 µM) is 77.3% and 82.5%. Besides, the pIC50 (curve of compound) is less than 5.00.

With `COc1c(OCCCN2CCOCC2)ccc2c3n(c(=NC(=O)c4cnc(N)nc4)nc12)CCN3`, the viability, T/C reads like this: (compound 0.00316 µM) 92.7% and 89.1%; (compound 0.01 µM) 44.2% and 46.4%; (compound 0.0316 µM) 11.5% and 12.2%; (compound 0.1 µM) 7.4% and 8.86%; (compound 0.316 µM) 6.39% and 5.98%; (compound 1 µM) 4.6% and 3.86%. Also, for the setting “curve of compound”, the pIC50 was 8.06 and 8.04.

Take `CC(C)(C)c1cnc(CSc2cnc(NC(=O)C3CCNCC3)s2)o1`: the viability, T/C by setting is: (compound 0.00949 µM) 111% and 106%; (compound 0.03 µM) 119% and 113%; (compound 0.0949 µM) 120% and 117%; (compound 0.3 µM) 14.5% and 23.1%; (compound 0.949 µM) 0.98% and 1.33%; (compound 3 µM) 0.95% and 1.2%. The pIC50 (curve of compound) is 6.72 and 6.67.

With `C=CCn1c(=O)c2cnc(Nc3ccc(N4CCN(C)CC4)cc3)nc2n1-c1cccc(C(C)(C)O)n1`, the viability, T/C (compound 0.0316 µM) is 89.6% and 97.2%; the viability, T/C (compound 0.1 µM) was 64.6% and 59.2%; the viability, T/C (compound 0.316 µM) was 13.3% and 15.5%; the viability, T/C (compound 1 µM) was 8.1% and 7.49%; the viability, T/C (compound 3.16 µM) was 4.13% and 4.87%; the viability, T/C (compound 10 µM) is 6.98% and 5.63%. For the same compound, the pIC50 (curve of compound) is 6.86 and 6.89.

Consider `CC(=O)c1c(C)c2cnc(Nc3ccc(N4CCNCC4)cn3)nc2n(C2CCCC2)c1=O` + CCN1CCN(Cc2ccc(Nc3ncc(F)c(-c4cc(F)c5nc(C)n(C(C)C)c5c4)n3)nc2)CC1, for which the pIC50 reads like this: under setting [1], 6.56; under setting [2], 7.20; under setting [3], 8.05; under setting [4], 8.58; under setting [5], greater than 9.02. The viability, T/C is 79.7% (second compound 0.01 µM, first compound 0.000949 µM); 77.4% (second compound 0.01 µM, first compound 0.003 µM); 66% under setting [6]; 57.5% under setting [7]; 53.3% under setting [8]; 48.9% under setting [9]. Besides, the viability, T/C is, setting by setting: (second compound 0.0316 µM, first compound 0.000949 µM) 68%; (second compound 0.0316 µM, first compound 0.003 µM) 62.5%; under setting [10], 56.5%; under setting [11], 50.9%; under setting [12], 49.1%; under setting [13], 46.7%. The viability, T/C was 57.7% (second compound 0.1 µM, first compound 0.000949 µM); 52.3% (second compound 0.1 µM, first compound 0.003 µM); 51.8% under setting [14]; 46.9% under setting [15]; 40.5% under setting [16]; 42% under setting [17]. For the same compound, the viability, T/C runs as follows: (second compound 0.316 µM, first compound 0.000949 µM) 51.5%; (second compound 0.316 µM, first compound 0.003 µM) 49%; under setting [20], 51%; under setting [21], 45.6%; under setting [22], 45.5%; under setting [23], 46.8%. Besides, the viability, T/C by setting is: (second compound 1 µM, first compound 0.000949 µM) 41.4%; (second compound 1 µM, first compound 0.003 µM) 43.1%; under setting [26], 42.3%; under setting [27], 35.9%; under setting [28], 39.2%; under setting [29], 42.4%.

Consider `Cn1ncc(Cl)c1-c1cc(C(=O)NC(CN)Cc2cccc(F)c2)sc1Cl` (stereo not given), for which the viability, T/C reads like this: (compound 0.0316 µM) 73.4% and 80.3%; (compound 0.1 µM) 52.8% and 48.3%; (compound 0.316 µM) 27.5% and 26.4%; (compound 1 µM) 16.1% and 19%; (compound 3.16 µM) 8.76% and 8.97%; (compound 10 µM) 0.31% and 1.17%. Further, the pIC50 (curve of compound) was 6.97 and 7.02.

Take `CC(C)(C)c1cnc(CSc2cnc(NC(=O)C3CCNCC3)s2)o1` + CC(C)NCC(C(=O)N1CCN(c2ncnc3c2C(C)CC3O)CC1)c1ccc(Cl)cc1: the pIC50 is, setting by setting: under setting [3], 6.77; under setting [4], 6.93; under setting [5], greater than 8.02; (curve of first compound, second compound 3.16 µM) greater than 8.02; (curve of first compound, second compound 10 µM) greater than 8.02. Besides, the viability, T/C under setting [14] is 74.8%; the viability, T/C under setting [15] is 92%; the viability, T/C under setting [16] was 89.1%; the viability, T/C under setting [17] was 14.5%; the viability, T/C under setting [18] is 0.65%; the viability, T/C under setting [19] was 0.75%. Moreover, the viability, T/C under setting [20] was 49.5%; the viability, T/C under setting [21] is 50.8%; the viability, T/C under setting [22] was 73.7%; the viability, T/C under setting [23] was 17.3%; the viability, T/C under setting [24] is 0.41%; the viability, T/C under setting [25] was 0.65%. Also, the viability, T/C was 22.3% under setting [26]; 30.2% under setting [27]; 41.9% under setting [28]; 11.7% under setting [29]; 0.3% under setting [30]; 0.62% under setting [31]. Moreover, the viability, T/C is 18% (second compound 3.16 µM, first compound 0.00949 µM); 22.6% (second compound 3.16 µM, first compound 0.03 µM); 28.4% (second compound 3.16 µM, first compound 0.0949 µM); 9.86% (second compound 3.16 µM, first compound 0.3 µM); 0.58% (second compound 3.16 µM, first compound 0.949 µM); 0.66% (second compound 3.16 µM, first compound 3 µM). Moreover, the viability, T/C (second compound 10 µM, first compound 0.00949 µM) is 11.3%; the viability, T/C (second compound 10 µM, first compound 0.03 µM) is 11.4%; the viability, T/C (second compound 10 µM, first compound 0.0949 µM) is 14.2%; the viability, T/C (second compound 10 µM, first compound 0.3 µM) is 2.96%; the viability, T/C (second compound 10 µM, first compound 0.949 µM) was 0.36%; the viability, T/C (second compound 10 µM, first compound 3 µM) is 0.65%.
